According to PMC3703859 (Neuropharmacology, 2010):
Substitutions are numbered along the chain they refer to. Numbers in names are those of the source.

Columns and labels:
human DAT V152A [1] = target: T1, human DAT V152A (Homo sapiens, UniProt Q01959, V152A); experiment: [^3H]CFT binding on intact transfected COS7 cells; settings: for reduction in apparent affinity in [^3H]CFT competition binding versus wild type: V152A vs WT
human DAT V152I [2] = target: T2, human DAT V152I (Homo sapiens, UniProt Q01959, V152I); experiment: [^3H]CFT binding on intact transfected COS7 cells; settings: for reduction in apparent affinity in [^3H]CFT competition binding versus wild type: V152I vs WT
human DAT V152I [3] = target: T2, human DAT V152I; experiment: [^3H]dopamine uptake in transfected COS7 cells; type: cell-based; settings: for decrease in potency in inhibition of [^3H]dopamine uptake versus wild type: V152I vs WT
human DAT V152A [4] = target: T1, human DAT V152A; experiment: [^3H]dopamine uptake in transfected COS7 cells; type: cell-based; settings: for decrease in potency in inhibition of [^3H]dopamine uptake versus wild type: V152A vs WT
wild type human DAT [5] = target: T3, wild type human DAT (Homo sapiens, UniProt Q01959); experiment: [^3H]CFT binding on intact transfected COS7 cells; settings: WT DAT
human DAT A479V/A480V [6] = target: T4, human DAT A479V/A480V (Homo sapiens, UniProt Q01959, A479V/A480V); experiment: [^3H]CFT binding on intact transfected COS7 cells
human DAT N157C = human DAT N157C (Homo sapiens, UniProt Q01959, N157C); experiment: [^3H]dopamine uptake in transfected COS7 cells; type: cell-based
human DAT S422A = human DAT S422A (Homo sapiens, UniProt Q01959, S422A); experiment: [^3H]dopamine uptake in transfected COS7 cells; type: cell-based
wild type human DAT [7] = target: T3, wild type human DAT; experiment: [^3H]dopamine uptake in transfected COS7 cells; type: cell-based; settings: WT DAT
human DAT A479V/A480V [8] = target: T4, human DAT A479V/A480V; experiment: [^3H]dopamine uptake in transfected COS7 cells; type: cell-based
human DAT N157A = human DAT N157A (Homo sapiens, UniProt Q01959, N157A); experiment: [^3H]dopamine uptake in transfected COS7 cells; type: cell-based
[9] = substrate: NCCc1ccc(O)c(O)c1; experiment: cells, lysate or membranes; settings: COS7 cells, 5 min uptake at room temperature, pH 7.4

T1 sequence (Q01959 whole entry V152A): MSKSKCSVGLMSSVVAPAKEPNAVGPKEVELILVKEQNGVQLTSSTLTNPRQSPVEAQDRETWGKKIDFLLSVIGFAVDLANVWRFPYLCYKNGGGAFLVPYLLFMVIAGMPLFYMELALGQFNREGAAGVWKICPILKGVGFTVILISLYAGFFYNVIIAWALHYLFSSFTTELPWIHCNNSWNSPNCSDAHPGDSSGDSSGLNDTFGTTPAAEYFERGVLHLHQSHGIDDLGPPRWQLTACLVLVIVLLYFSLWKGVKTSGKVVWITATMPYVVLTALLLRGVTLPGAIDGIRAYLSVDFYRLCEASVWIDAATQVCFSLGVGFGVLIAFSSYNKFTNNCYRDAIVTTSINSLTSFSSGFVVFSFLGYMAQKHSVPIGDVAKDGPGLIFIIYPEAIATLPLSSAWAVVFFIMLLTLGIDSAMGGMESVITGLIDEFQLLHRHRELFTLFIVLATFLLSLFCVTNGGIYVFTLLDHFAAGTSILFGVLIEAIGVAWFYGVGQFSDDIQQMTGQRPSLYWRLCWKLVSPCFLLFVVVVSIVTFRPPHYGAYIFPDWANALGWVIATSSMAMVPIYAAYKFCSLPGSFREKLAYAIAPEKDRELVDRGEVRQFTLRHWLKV
T2 sequence (Q01959 whole entry V152I): as the sequence (Q01959 whole entry V152A) above, with A152I counted along it
Chain of human DAT S422A (Q01959 whole entry S422A): as the sequence (Q01959 whole entry V152A) above, with A152V, S422A counted along it
T4 sequence (Q01959 whole entry A479V/A480V): as the sequence (Q01959 whole entry V152A) above, with A152V, A479V, A480V counted along it
Chain of human DAT N157C (Q01959 whole entry N157C): as the sequence (Q01959 whole entry V152A) above, with A152V, N157C counted along it
Chain of human DAT N157A (Q01959 whole entry N157A): as the sequence (Q01959 whole entry V152A) above, with A152V, N157A counted along it

CN1[C@@H]2CC[C@H]1C[C@@H](OC(c1ccccc1)c1ccccc1)C2 [BZT, benztropine]
reduction in apparent affinity in [^3H]CFT competition binding versus wild type (human DAT V152A [1]): ~ 15 fold
reduction in apparent affinity in [^3H]CFT competition binding versus wild type (human DAT V152I [2]): ~ 15 fold
decrease in potency in inhibition of [^3H]dopamine uptake versus wild type (human DAT V152I [3]): no change
decrease in potency in inhibition of [^3H]dopamine uptake versus wild type (human DAT V152A [4]): ~ 3 fold

COC(=O)[C@H]1[C@@H](c2ccc(F)cc2)C[C@@H]2CC[C@H]1N2C [CFT, (−)-2β-carbomethoxy-3β-(4-fluorophenyl)tropane]
Bmax ± S.E. of [^3H]CFT binding (human DAT V152A [1]; V152A, intact COS7 cells): 380 ± 99 fmol/10^5 cells
Bmax ± S.E. of [^3H]CFT binding (human DAT V152I [2]; V152I, intact COS7 cells): 215 ± 58 fmol/10^5 cells
Bmax ± S.E. of [^3H]CFT binding (wild type human DAT [5]): 386 ± 89 fmol/10^5 cells
Bmax ± S.E. of [^3H]CFT binding (human DAT A479V/A480V [6]): 310 ± 44 fmol/10^5 cells

CCCCN1[C@@H]2CC[C@H]1CC(OC(c1ccc(F)cc1)c1ccc(F)cc1)C2 (stereo partly drawn) [JHW007]
reduction in apparent affinity in [^3H]CFT competition binding versus wild type (human DAT V152A [1]): 10–20 fold
reduction in apparent affinity in [^3H]CFT competition binding versus wild type (human DAT V152I [2]): 10–20 fold
decrease in potency in inhibition of [^3H]dopamine uptake versus wild type (human DAT V152I [3]): ~ 6 fold
decrease in potency in inhibition of [^3H]dopamine uptake versus wild type (human DAT V152A [4]): ~ 2 fold

NCCc1ccc(O)c(O)c1 [[^3H]Dopamine, 3,4-[Ring-2,5,6-^3H]-dihydroxyphenylethylamine]
Vmax ± S.E. of [^3H]dopamine uptake (human DAT N157C): 1768 ± 159 fmol/min/10^5 cells
increase in Km value for [^3H]dopamine uptake versus wild type (human DAT S422A; S422A vs WT): ~ 4 fold
Vmax ± S.E. of [^3H]dopamine uptake (human DAT S422A; S422A, COS7 cells): 320 ± 40 fmol/min/10^5 cells
Vmax ± S.E. of [^3H]dopamine uptake (wild type human DAT [7]): 5275 ± 555 fmol/min/10^5 cells
Vmax ± S.E. of [^3H]dopamine uptake (human DAT V152I [3]; V152I, COS7 cells): 242 ± 37 fmol/min/10^5 cells
Vmax ± S.E. of [^3H]dopamine uptake (human DAT A479V/A480V [8]): 2231 ± 157 fmol/min/10^5 cells
Vmax ± S.E. of [^3H]dopamine uptake (human DAT N157A): 598 ± 179 fmol/min/10^5 cells
Vmax ± S.E. of [^3H]dopamine uptake (human DAT V152A [4]; V152A, COS7 cells): 614 ± 167 fmol/min/10^5 cells

B1: wild type human DAT (Homo sapiens) (protein)
chain: MSKSKCSVGLMSSVVAPAKEPNAVGPKEVELILVKEQNGVQLTSSTLTNPRQSPVEAQDRETWGKKIDFLLSVIGFAVDLANVWRFPYLCYKNGGGAFLVPYLLFMVIAGMPLFYMELALGQFNREGAAGVWKICPILKGVGFTVILISLYVGFFYNVIIAWALHYLFSSFTTELPWIHCNNSWNSPNCSDAHPGDSSGDSSGLNDTFGTTPAAEYFERGVLHLHQSHGIDDLGPPRWQLTACLVLVIVLLYFSLWKGVKTSGKVVWITATMPYVVLTALLLRGVTLPGAIDGIRAYLSVDFYRLCEASVWIDAATQVCFSLGVGFGVLIAFSSYNKFTNNCYRDAIVTTSINSLTSFSSGFVVFSFLGYMAQKHSVPIGDVAKDGPGLIFIIYPEAIATLPLSSAWAVVFFIMLLTLGIDSAMGGMESVITGLIDEFQLLHRHRELFTLFIVLATFLLSLFCVTNGGIYVFTLLDHFAAGTSILFGVLIEAIGVAWFYGVGQFSDDIQQMTGQRPSLYWRLCWKLVSPCFLLFVVVVSIVTFRPPHYGAYIFPDWANALGWVIATSSMAMVPIYAAYKFCSLPGSFREKLAYAIAPEKDRELVDRGEVRQFTLRHWLKV
Km ([9]; other: WT DAT): 986 [861–1130] nM

B2: human DAT N157C (Homo sapiens; N157C) (protein)
chain: B1 chain with N157C
Km ([9]; other: N157C): 2710 [2170–3380] nM

B3: human DAT N157A (Homo sapiens; N157A) (protein)
chain: B1 chain with N157A
Km ([9]; other: N157A): 3240 [2720–3870] nM

B4: human DAT A479V/A480V (Homo sapiens; A479V/A480V) (protein)
chain: B1 chain with A479V, A480V
Km ([9]; other: A479V/A480V): 1620 [1350–1940] nM

B5: human DAT S422A (Homo sapiens; S422A) (protein)
chain: B1 chain with S422A
Km ([9]; other: S422A): 3950 [3730–4190] nM

B6: human DAT V152A (Homo sapiens; V152A) (protein)
chain: B1 chain with V152A
Km ([9]; other: V152A): 3090 [2310–4130] nM

B7: human DAT V152I (Homo sapiens; V152I) (protein)
chain: B1 chain with V152I
Km ([9]; other: V152I): 4370 [3180–6010] nM
